The text below walks through data of US20180214449A1, “CANCER THERAPY USING JAK INHIBITOR IN COMBINATION WITH MAPK INHIBITORS” (UBRX, INC., priority 2015, published 2018).

Test [1] has as its system JAK1. The note with it: cited from earlier work.
Test [2] deals with B-Raf inhibitor resistant cells A375 or Lu1205R. Description: Growth in soft agar of B-Raf inhibitor resistant cells. In kind it is cell-based, human. To be noted: two weeks in soft agar. Here is the method: Melanoma cells A375 and Lu1205 were cultured in Dulbecco's modified Eagle's medium (DMEM) supplemented with 10% fetal bovine serum (FBS), and penicillin-streptomycin. The melanoma UACC cell lines (UACC91, UACC502, UACC612, UACC647, and UACC1113) were maintained in Rosewell Park Memorial Institute Medium (RPMI1640) supplemented with 10% FBS and penicillin-streptomycin.

The target in test [3] is JAK2 (Homo sapiens, UniProt O60674). To be noted: cited from earlier work.
For test [4], the system named is UACC2641. Description: IC50 to B-Raf inhibitors in melanoma cell line. The test is classed as cell-based. To be noted: Homo sapiens.
The subject of test [5] is UACC257. Description: IC50 to B-Raf inhibitors in melanoma cell line. The test is classed as cell-based. To be noted: Homo sapiens, UACC-257.
In test [6] the test system is UACC558. Description: IC50 to B-Raf inhibitors in melanoma cell line. In kind it is cell-based. To be noted: Homo sapiens.
Test [7] concerns UACC3291. Description: IC50 to B-Raf inhibitors in melanoma cell line. In kind it is cell-based. To be noted: Homo sapiens.
Test [8] relates to UACC91. Description: IC50 to B-Raf inhibitors in melanoma cell line. The test is classed as cell-based. To be noted: Homo sapiens. How it is done:
(§1) Melanoma cells A375 and Lu1205 were cultured in Dulbecco's modified Eagle's medium (DMEM) supplemented with 10% fetal bovine serum (FBS), and penicillin-streptomycin. The melanoma UACC cell lines (UACC91, UACC502, UACC612, UACC647, and UACC1113) were maintained in Rosewell Park Memorial Institute Medium (RPMI1640) supplemented with 10% FBS and penicillin-streptomycin. In order to develop resistance to B-Raf inhibitor PLX-4032, the cells were grown with increasing concentrations of the inhibitor at each passage and eventually maintained in appropriate media containing either 5 μM (for A375 and Lu1205 cells) or 1 μM (for UACC cells) PLX-4032.
(§2) Melanoma cell lines UACC91, UACC502, UACC612, UACC647, and UACC1113 were treated with B-Raf inhibitors PLX-4032 or PLX-4720, and the IC50 values were correlated with RNF125 expression levels. The RNF125 expression was determined using RNA-Sequencing (RNA-Seq) methods and expressed in fragments per kilobase per million reads unit (FPKM).

For test [9], the system named is UACC502. Description: IC50 to B-Raf inhibitors in melanoma cell line. The test is classed as cell-based. To be noted: Homo sapiens. Here is the method:
as §1, §2

Test [10] relates to UACC647. Description: IC50 to B-Raf inhibitors in melanoma cell line. In kind it is cell-based. The note with it: Homo sapiens. Here is the method: as §1, §2
The test system of test [11] is UACC612. Description: IC50 to B-Raf inhibitors in melanoma cell line. In kind it is cell-based. The note with it: Homo sapiens. How it is done:
as §1, §2

Test [12] deals with UACC1308. Description: IC50 to B-Raf inhibitors in melanoma cell line. In kind it is cell-based. To be noted: Homo sapiens.
Test [13] deals with UACC903. Description: IC50 to B-Raf inhibitors in melanoma cell line. In kind it is cell-based. The note with it: Homo sapiens, UACC-903.
The subject of test [14] is other protein tyrosine kinases. To be noted: read-out: IC50s for other protein tyrosine kinases; units printed within the range (nM to μM); cited from earlier work.
The subject of test [15] is mouse T-cell lymphoma cells. The note with it: read-out: IC50, IL-2 and IL-4-dependent proliferation; cited from earlier work.
In test [16] the test system is melanoma patients. The note with it: clinical trial data; cited from earlier work.
The subject of test [17] is A375, Lu1205, and several UACC melanoma cell lines resistant to BRAF inhibitors or BRAF and MEK inhibitors. Description: Example 2: growth in soft agar of resistant melanoma cells. To be noted: two weeks in soft agar, 0-10 μM. The test is classed as cell-based, human. How it is done:
The cells are grown for two weeks in soft agar, in the presence of 0-10 μM of ruxolitinib (JAK1 inhibitor), dabrafenib (BRAF inhibitor), trametinib (MEK inhibitor) as single agents or in combination therapies, using a constant volume of inhibitor for all the conditions.

Sequence of JAK2 (O60674 whole entry, species assumed): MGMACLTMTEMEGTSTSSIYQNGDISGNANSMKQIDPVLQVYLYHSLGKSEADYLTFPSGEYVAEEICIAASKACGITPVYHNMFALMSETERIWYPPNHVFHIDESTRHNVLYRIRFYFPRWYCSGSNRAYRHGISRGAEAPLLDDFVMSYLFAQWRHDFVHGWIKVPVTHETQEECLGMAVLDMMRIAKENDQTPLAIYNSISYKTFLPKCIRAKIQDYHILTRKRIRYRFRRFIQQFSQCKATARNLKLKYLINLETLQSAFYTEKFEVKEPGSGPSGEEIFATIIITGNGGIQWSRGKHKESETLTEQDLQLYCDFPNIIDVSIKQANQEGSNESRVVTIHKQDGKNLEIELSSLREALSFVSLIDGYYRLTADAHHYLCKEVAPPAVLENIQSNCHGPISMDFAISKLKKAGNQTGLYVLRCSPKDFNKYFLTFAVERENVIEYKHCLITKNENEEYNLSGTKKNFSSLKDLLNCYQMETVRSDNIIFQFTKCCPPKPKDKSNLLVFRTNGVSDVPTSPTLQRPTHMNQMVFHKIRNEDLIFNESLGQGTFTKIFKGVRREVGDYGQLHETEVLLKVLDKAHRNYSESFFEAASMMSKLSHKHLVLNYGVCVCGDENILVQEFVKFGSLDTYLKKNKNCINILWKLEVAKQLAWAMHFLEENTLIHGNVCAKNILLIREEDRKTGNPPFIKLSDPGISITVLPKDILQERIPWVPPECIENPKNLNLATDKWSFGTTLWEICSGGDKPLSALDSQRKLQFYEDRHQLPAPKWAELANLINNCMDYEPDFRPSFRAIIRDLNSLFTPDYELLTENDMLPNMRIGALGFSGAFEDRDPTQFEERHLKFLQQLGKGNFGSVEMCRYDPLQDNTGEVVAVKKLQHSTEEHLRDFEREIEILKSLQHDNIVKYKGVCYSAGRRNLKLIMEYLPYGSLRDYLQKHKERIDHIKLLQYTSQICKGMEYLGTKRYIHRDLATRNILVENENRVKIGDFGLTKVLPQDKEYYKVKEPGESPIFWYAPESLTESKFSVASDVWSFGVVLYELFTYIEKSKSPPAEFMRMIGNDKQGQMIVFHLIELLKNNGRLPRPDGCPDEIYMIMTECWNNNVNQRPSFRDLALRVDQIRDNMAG

With `Cc1cc(Nc2nc(N[C@@H](C)c3ncc(F)cn3)ncc2Cl)n[nH]1` [AZD1480], the IC50 in [1] is 0.0013 µM; in [3] it was 0.00026 µM. In addition, in test [2], the “growth in soft agar” value is listed as “did not inhibit growth”.

Turning to `COc1cc2ncnc(Nc3ccc(F)c(Cl)c3)c2cc1OCCCN1CCOCC1` [Gefitinib], the “growth in soft agar” value in test [2] was “did not inhibit growth”.

With `CCCS(=O)(=O)Nc1ccc(F)c(C(=O)c2c[nH]c3ncc(-c4ccc(Cl)cc4)cc23)c1F` [PLX-4032, vemurafenib], the IC50 in test [4] is 5.88 µM; in test [5], 0.15 µM; in test [6] it was 0.69 µM; in test [7], 0.06 µM; in [8], 0.301 µM; in test [9] it was 0.55 µM. Besides, the IC50 in [10] amounted to 3.37 µM; in test [11] it was 3.78 µM; in test [12], 0.06 µM; in [13] it was 0.25 µM.

`CCCS(=O)(=O)Nc1ccc(F)c(C(=O)c2c[nH]c3ncc(Cl)cc23)c1F` [PLX-4702]: the IC50 in [4] was 4.59 µM; in [5] it was 0.14 µM; in [6], 0.42 µM; in test [7], 0.09 µM; in test [8] it was 0.532 µM; in test [9], 0.78 µM. The IC50 in test [10] turned out to be 6.72 µM; in [11] it was 5.48 µM; in test [12] it was 0.09 µM; in test [13], 0.25 µM.

For `CC(C)(C)c1nc2c3cc[nH]c(=O)c3c3cc(F)ccc3c2[nH]1` [Pyridone 6], the IC50 in test [14] was ≥ 130 nM; in test [15] it was 0.05 to 0.1 µM.

Consider `CC(C)(C)c1nc(-c2cccc(NS(=O)(=O)c3c(F)cccc3F)c2F)c(-c2ccnc(N)n2)s1` [dabrafenib], for which the “time until resistance occurs” value in test [16] is 6 to 7 months. The “growth of the melanoma cells in soft agar” value in test [17] is “does not block the growth”.
